Measurements taken from US20040029938A1, “Medicaments” (priority 2000, published 2004).

Test system: inducible nitric oxide synthase (INOS)
Test: LPS-induced INOS activity in J774 cells (DAF-2 fluorescence)
Format: cell-based, mouse
Details: pre-treatment 6 hours before and 24 hours after LPS (1 μg/ml), sub-nanomolar-nanomolar concentrations, FIG. 1
Procedure: In this assay system, lipopolysaccharide (LPS) was used to induce the expression of INOS in the mouse macrophage cell line, J774. […] This reduction in INOS activity correlated with a reduction in LPS-induced INOS mRNA expression.
Specifically, LPS-induced INOS activity was measured using the following assay conditions. J774 cells were seeded at a density of […] per well, in a black, clear-bottomed, 96 well plate, 24hours prior to use. The cell culture and the drug dilutions were carried out in complete media, which consisted of DMEM (Dulbecco's modification of Eagle's medium) containing foetal calf serum (10%), glutamine (2 mM), penicillin (100 μ/ml) and streptomycin (100 μg/ml). The J774 cells were pre-treated with the PPAR delta activators A and B, or vehicle, for 6 hours prior to, and for 24 hours subsequent to the addition of LPS (typically, a concentration of 1 μg/ml of LPS was used). Twenty-four hours after the addition of LPS, INOS activity was measured by the following method. […] After incubation at 37° C. for 3 hours, fluorescence from each well was measured at an excitation wavelength of 485 nm, and an emission wavelength of 530 nm. […]
LPS to induce INOS activity, in the presence and absence of PPAR delta activators, was then calculated. […]

Cc1cc(SCc2sc(-c3ccc(C(F)(F)F)cc3)nc2C)ccc1OCC(=O)O [Compound A, 2-{2-methyl-4-[({4-methyl-2-[4-(trifluoromethyl)phenyl]-1,3-thiazol-5-yl}methyl)sulfanyl]phenoxy}acetic acid]
inhibition of LPS-induced INOS activity: marked inhibition

Cc1cc(SCc2sc(-c3ccc(C(F)(F)F)c(F)c3)nc2C)ccc1OCC(=O)O [Compound B, 2-{2-methyl-4-[({4-methyl-2-[3-fluoro-4-(trifluoromethyl)phenyl]-1,3-thiazol-5-yl}methyl)sulfanyl]phenoxy}acetic acid]
inhibition of LPS-induced INOS activity: marked inhibition
